Patent publication US7138361B2, “Herbicidal heterocycles” (E. I. du Pont de Nemours and Company, priority 2000, dated 2006)

Key:
Format in all cases: in vivo
[1] = system: lambsquarters (Chenopodium album); assay: Test C postemergence
Description: (§1) Seeds of plant species selected from bermudagrass (Cynodon dactylon), Surinam grass (Brachiaria decumbens), cocklebur (Xanthium strumarium), corn (Zea mays), crabgrass (Digitaria sanguinalis), woolly cupgrass (Eriochloa villosa), giant foxtail (Setaria faberii), goosegrass (Eleusine indica), johnsongrass (Sorghum halepense), kochia (Kochia scoparia), lambsquarters (Chenopodium album), morningglory (Ipomoea hederacea), yellow nutsedge (Cyperus esculentus), pigweed (Amaranthus retroflexus), common ragweed (Ambrosia elatior), soybean (Glycine max) and velvetleaf (Abutilon theophrasti) were planted and treated preemergence with test chemicals formulated in a non-phytotoxic solvent mixture which included a surfactant.
(§2) At the same time, plants selected from these crop and weed species and also winter barley (Hordeum vulgare), blackgrass (Alopecurus myosuroides), canary grass (Phalaris minor), chickweed (Stellaria media), downy brome (Bromus tectorum), green foxtail (Setaria viridis), Italian ryegrass (Lolium multiflorum), wheat (Triticum aestivum), wild oat (Avena fatua) and windgrass (Apera spica-venti) were treated with postemergence applications of some of the test chemicals formulated in the same manner. Plants ranged in height from 2 to 18 cm (1- to 4-leaf stage) for postemergence treatments. Plant species in the flooded paddy test consisted of rice (Oryza saliva), smallflower flatsedge (Cyperus difformis), duck salad (Heteranthera limosa) and barnyardgrass (Echinochloa crus-galli) grown to the 2-leaf stage for testing. Treated plants and controls were maintained in a greenhouse for 12 to 14 days, after which time all species were compared to controls and visually evaluated. Plant response ratings, summarized in Table C, are based on a scale of 0 to 100 where 0 is no effect and 100 is complete control. A dash (-) response means no test result.

[2] = system: pigweed (Amaranthus retroflexus); assay: Test C postemergence
Description: as §1, §2

kochia (Kochia scoparia) = assay: Test C postemergence
Description: as §1, §2

[3] = system: morning glory (Ipomoea hederacea); assay: Test B postemergence
Method in brief: (§3)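 Visual injury scores, 0 = no effect to 100 = complete control, assigned against controls after 13 to 15 days in the greenhouse. Compounds formulated in non-phytotoxic solvent plus surfactant and applied to soil after planting (pre) or onto foliage of 1- to 4-leaf plants (post).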

[4] = system: lambsquarters (Chenopodium album); assay: Test B postemergence
Method in brief: as §3

[5] = system: cocklebur (Xanthium strumarium); assay: Test B postemergence
Method in brief: as §3

[6] = system: Surinam grass (Brachiaria decumbens); assay: Test B postemergence
Method in brief: as §3

[7] = system: pigweed (Amaranthus retroflexus); assay: Test B postemergence
Method in brief: as §3

[8] = system: giant foxtail (Setaria faberii); assay: Test B postemergence
Method in brief: as §3

[9] = system: velvetleaf (Abutilon theophrasti); assay: Test B postemergence
Method in brief: as §3

[10] = system: crabgrass (Digitaria sanguinalis); assay: Test B postemergence
Method in brief: as §3

[11] = system: blackgrass (Alopecurus myosuroides); assay: Test B postemergence
Method in brief: as §3

Sunflower = assay: Test C preemergence; details: scale 0 to 100
[12] = Rate 250 g/ha, scale 0 to 100 (0 no effect, 100 complete control)
[13] = Rate 62 g/ha, scale 0 to 100, 0 no effect, 100 complete control
[14] = Rate 250 g/ha, scale 0 (no effect) to 100 (complete control), 13 to 15 days
[15] = Rate 500 g/ha, scale 0 to 100, 0 is no effect, 100 is complete control, 13 to 15 days
[16] = Rate 125 g/ha, scale 0 (no effect) to 100 (complete control), 13 to 15 days
[17] = Rate 125 g/ha, scale 0 to 100, 0 no effect, 100 complete control
[18] = Rate 500 g/ha, scale 0 to 100 (0 no effect, 100 complete control)

## Cc1ccc(N2CCC(n3ccc(C(C)(C)C)n3)C2=O)cc1OCCCl (stereo not drawn) [Compound 109]
[1]; Rate 31 g/ha, scale 0 to 100
  Plant response rating, Lambsquarters: 70
[1]; Rate 62 g/ha, scale 0 to 100
  Plant response rating, Lambsquarters: 70
[1]; [12]
  Plant response rating, Lambsquarters: 100
[2]; Rate 31 g/ha, scale 0 to 100
  Plant response rating, Pigweed: 70
[2]; Rate 62 g/ha, scale 0 to 100
  Plant response rating, Pigweed: 70
[2]; [12]
  Plant response rating, Pigweed: 70
Kochia (Kochia scoparia); Rate 31 g/ha, scale 0 to 100
  Plant response rating, Kochia: 80
Kochia (Kochia scoparia); Rate 62 g/ha, scale 0 to 100
  Plant response rating, Kochia: 80
Kochia (Kochia scoparia); [12]
  Plant response rating, Kochia: 90
[3]; [13]
  Plant response rating, Morningglory: 90
[3]; [14]
  Plant response rating, Morningglory: 100
[3]; [15]
  Plant response rating, Morningglory: 100
[4]; [13]
  Plant response rating, Lambsquarters: 80
[4]; [14]
  Plant response rating, Lambsquarters: 90
[4]; [15]
  Plant response rating, Lambsquarters: 90
[5]; [13]
  Plant response rating, Cocklebur: 60
[5]; [16]
  Plant response rating, Cocklebur: 40
[5]; [14]
  Plant response rating, Cocklebur: 70
[5]; [15]
  Plant response rating, Cocklebur: 90
[6]; [13]
  Plant response rating, Surinam grass: 0
[6]; [16]
  Plant response rating, Surinam grass: 0
[6]; [14]
  Plant response rating, Surinam grass: 20
[6]; [15]
  Plant response rating, Surinam grass: 0
[7]; [13]
  Plant response rating, Pigweed: 50
[7]; [14]
  Plant response rating, Pigweed: 60
[7]; [15]
  Plant response rating, Pigweed: 90
[8]; [13]
  Plant response rating, Foxtail, Giant: 0
[8]; [16]
  Plant response rating, Foxtail, Giant: 0
[8]; [14]
  Plant response rating, Foxtail, Giant: 20
[8]; [15]
  Plant response rating, Foxtail, Giant: 0
[9]; [13]
  Plant response rating, Velvetleaf: 0
[9]; [14]
  Plant response rating, Velvetleaf: 80
[9]; [15]
  Plant response rating, Velvetleaf: 80
[10]; [13]
  Plant response rating, Crabgrass: 0
[10]; [16]
  Plant response rating, Crabgrass: 0
[10]; [14]
  Plant response rating, Crabgrass: 0
[10]; [15]
  Plant response rating, Crabgrass: 0
[11]; [13]
  Plant response rating, Blackgrass: 0
[11]; [16]
  Plant response rating, Blackgrass: 0
[11]; [14]
  Plant response rating, Blackgrass: 0
[11]; [15]
  Plant response rating, Blackgrass: 0
Sunflower; Rate 31 g/ha
  Plant response rating, Sunflower: 40
Sunflower; Rate 62 g/ha
  Plant response rating, Sunflower: 70

## CCOc1cc(N2CCC(n3ccc(C(C)(C)C)n3)C2=O)ccc1C (stereo not drawn) [Compound 106]
[1]; Rate 31 g/ha, scale 0 to 100
  Plant response rating, Lambsquarters: 80
[1]; Rate 62 g/ha, scale 0 to 100
  Plant response rating, Lambsquarters: 80
[1]; [17]
  Plant response rating, Lambsquarters: 80
[1]; [12]
  Plant response rating, Lambsquarters: 100
[2]; Rate 31 g/ha, scale 0 to 100
  Plant response rating, Pigweed: 70
[2]; Rate 62 g/ha, scale 0 to 100
  Plant response rating, Pigweed: 70
[2]; [17]
  Plant response rating, Pigweed: 80
[2]; [12]
  Plant response rating, Pigweed: 80
Kochia (Kochia scoparia); Rate 31 g/ha, scale 0 to 100
  Plant response rating, Kochia: 70
Kochia (Kochia scoparia); Rate 62 g/ha, scale 0 to 100
  Plant response rating, Kochia: 70
Kochia (Kochia scoparia); [17]
  Plant response rating, Kochia: 90
Kochia (Kochia scoparia); [12]
  Plant response rating, Kochia: 100
[3]; [15]
  Plant response rating, Morningglory: 100
[4]; [15]
  Plant response rating, Lambsquarters: 100
[5]; [16]
  Plant response rating, Cocklebur: 90
[5]; [15]
  Plant response rating, Cocklebur: 90
[6]; [16]
  Plant response rating, Surinam grass: 0
[6]; [15]
  Plant response rating, Surinam grass: 0
[7]; [15]
  Plant response rating, Pigweed: 90
[8]; [16]
  Plant response rating, Foxtail, Giant: 0
[8]; [15]
  Plant response rating, Foxtail, Giant: 0
[9]; [15]
  Plant response rating, Velvetleaf: 80
[10]; [16]
  Plant response rating, Crabgrass: 0
[10]; [15]
  Plant response rating, Crabgrass: 0
[11]; [16]
  Plant response rating, Blackgrass: 0
[11]; [15]
  Plant response rating, Blackgrass: 0
Sunflower; Rate 31 g/ha
  Plant response rating, Sunflower: 70
Sunflower; Rate 62 g/ha
  Plant response rating, Sunflower: 70

## COc1cc(N2CCC(n3ccc(C(C)C)n3)C2=O)ccc1Cl (stereo not drawn) [Compound 120]
[1]; Rate 62 g/ha, scale 0 to 100
  Plant response rating, Lambsquarters: 50
[1]; [12]
  Plant response rating, Lambsquarters: 90
[1]; [18]
  Plant response rating, Lambsquarters: 100
[2]; Rate 62 g/ha, scale 0 to 100
  Plant response rating, Pigweed: 0
[2]; [12]
  Plant response rating, Pigweed: 60
[2]; [18]
  Plant response rating, Pigweed: 90
Kochia (Kochia scoparia); Rate 62 g/ha, scale 0 to 100
  Plant response rating, Kochia: 50
Kochia (Kochia scoparia); [12]
  Plant response rating, Kochia: 90
Kochia (Kochia scoparia); [18]
  Plant response rating, Kochia: 90
[3]; [17]
  Plant response rating, Morningglory: 50
[4]; [17]
  Plant response rating, Lambsquarters: 60
[5]; [17]
  Plant response rating, Cocklebur: 90
[5]; [15]
  Plant response rating, Cocklebur: 100
[6]; [17]
  Plant response rating, Surinam grass: 20
[6]; [15]
  Plant response rating, Surinam grass: 40
[7]; [17]
  Plant response rating, Pigweed: 60
[8]; [17]
  Plant response rating, Foxtail, Giant: 0
[9]; [17]
  Plant response rating, Velvetleaf: 20
[10]; [17]
  Plant response rating, Crabgrass: 30
[11]; [17]
  Plant response rating, Blackgrass: 0
[11]; [15]
  Plant response rating, Blackgrass: 0
Sunflower; Rate 62 g/ha
  Plant response rating, Sunflower: 60
